Test results taken from ChEMBL document CHEMBL3885881, “DrugMatrix”.
Several values for one entry are separate records, joined by “and”; a condition that tells them apart may be missing. Identical values can stand only once.

Organism: Rattus norvegicus
Test: DrugMatrix - Regimen: Daily Repeat
Assay type: toxicity, organism-based, Sprague-Dawley
Design: regimen Daily Repeat, gender Male, age 6-8 weeks
Conditions: in vivo, po, route oral GAVAGE, vehicle 100 % WATER; for ABSOLUTE BASOPHIL / ABSOLUTE LYMPHOCYTE / ABSOLUTE MONOCYTE / ABSOLUTE SEGMENTED NEUTROPHIL / BASOPHIL / EOSINOPHIL / ERYTHROCYTE COUNT / HEMATOCRIT / HEMOGLOBIN / LEUKOCYTE COUNT / LYMPHOCYTE / MEAN CORPUSCULAR HEMOGLOBIN / MEAN CORPUSCULAR HEMOGLOBIN CONCENTRATION / MEAN CORPUSCULAR VOLUME / MONOCYTE / NEUTROPHIL / NUCLEATED RED BLOOD CELLS / PLATELET COUNT / ABSOLUTE EOSINOPHIL: tissue Blood; for ALANINE AMINOTRANSFERASE / ALBUMIN / ALKALINE PHOSPHATASE / ASPARTATE AMINOTRANSFERASE / BLOOD UREA NITROGEN / CARBON DIOXIDE / CHLORIDE / CHOLESTEROL / CREATINE PHOSPHOKINASE / CREATININE / GLUCOSE / LACTATE DEHYDROGENASE / LIPASE / PHOSPHORUS / POTASSIUM / SODIUM / TOTAL BILIRUBIN / TOTAL PROTEIN / URIC ACID: tissue Plasma
[1] = 0 mg/kg, 72 h, dose level Control, time 3 day
[2] = 0 mg/kg, 120 h, dose level Control, time 5 day
[3] = 4.5 mg/kg, 72 h, dose level Low, time 3 day

COc1ccc2c(c1)c(CC(=O)O)c(C)n2C(=O)c1ccc(Cl)cc1 [INDOMETHACIN]
ABSOLUTE BASOPHIL [1]: 0 CELLS/uL
ABSOLUTE LYMPHOCYTE [1]: 6747 CELLS/uL and 14108.83 CELLS/uL
ABSOLUTE MONOCYTE [1]: 73 CELLS/uL and 81 CELLS/uL
ABSOLUTE SEGMENTED NEUTROPHIL [1]: 480 CELLS/uL and 818.67 CELLS/uL
BASOPHIL [1]: 0%
EOSINOPHIL [1]: 0% and 0.67%
ERYTHROCYTE COUNT [1]: 5.14 x10E6/uL and 5.56 x10E6/uL
HEMATOCRIT [1]: 32.27% and 34.5%
HEMOGLOBIN [1]: 12.53 G/DL and 13.45 G/DL
LEUKOCYTE COUNT [1]: 7.3 x10E3/uL and 15.1 x10E3/uL
LYMPHOCYTE [1]: 93%
MEAN CORPUSCULAR HEMOGLOBIN [1]: 24.37 pg and 24.2 pg
MEAN CORPUSCULAR HEMOGLOBIN CONCENTRATION [1]: 38.87 G/DL and 38.98 G/DL
MEAN CORPUSCULAR VOLUME [1]: 62.7 fL and 62.07 fL
MONOCYTE [1]: 1% and 0.5%
NEUTROPHIL [1]: 6% and 5.83%
NUCLEATED RED BLOOD CELLS [1]: 0 /100WBC
PLATELET COUNT [1]: 1023 x10E3/uL and 1193.33 x10E3/uL
ALANINE AMINOTRANSFERASE [1]: 49.33 u/L and 60.33 u/L
ALBUMIN [1]: 3.73 G/DL and 4 G/DL
ALKALINE PHOSPHATASE [1]: 331 u/L and 334.83 u/L
ASPARTATE AMINOTRANSFERASE [1]: 79.67 u/L and 74.5 u/L
BLOOD UREA NITROGEN [1]: 15.33 mg/dL and 13.5 mg/dL
CARBON DIOXIDE [1]: 30.33 mmol/L
CHLORIDE [1]: 100.67 MEQ/L and 98.33 MEQ/L
CHOLESTEROL [1]: 77 mg/dL and 71.17 mg/dL
CREATINE PHOSPHOKINASE [1]: 319.67 u/L and 212 u/L
CREATININE [1]: 0.11 mg/dL and 0.21 mg/dL
GLUCOSE [1]: 169 mg/dL and 173.17 mg/dL
LACTATE DEHYDROGENASE [1]: 113.33 u/L and 101.5 u/L
LIPASE [1]: 10.33 u/L and 24.17 u/L
PHOSPHORUS [1]: 11.97 mg/dL and 10.87 mg/dL
POTASSIUM [1]: 5.06 MEQ/L and 6.06 MEQ/L
SODIUM [1]: 144.13 MEQ/L and 140.58 MEQ/L
TOTAL BILIRUBIN [1]: 0.2 mg/dL and 0.17 mg/dL
TOTAL PROTEIN [1]: 5.8 G/DL and 5.9 G/DL
URIC ACID [1]: 0.57 mg/dL and 1.23 mg/dL
ABSOLUTE BASOPHIL [2]: 0 CELLS/uL
ABSOLUTE EOSINOPHIL [2]: 31.33 CELLS/uL and 34.5 CELLS/uL
ABSOLUTE LYMPHOCYTE [2]: 7806.33 CELLS/uL and 8181 CELLS/uL
ABSOLUTE MONOCYTE [2]: 202 CELLS/uL and 82.67 CELLS/uL
ABSOLUTE SEGMENTED NEUTROPHIL [2]: 927 CELLS/uL and 435.17 CELLS/uL
BASOPHIL [2]: 0%
EOSINOPHIL [2]: 0.33% and 0.5%
ERYTHROCYTE COUNT [2]: 4.96 x10E6/uL and 5.31 x10E6/uL
HEMATOCRIT [2]: 32.37% and 33.83%
HEMOGLOBIN [2]: 12.53 G/DL and 13.37 G/DL
LEUKOCYTE COUNT [2]: 8.97 x10E3/uL and 8.73 x10E3/uL
LYMPHOCYTE [2]: 87.33% and 93.5%
MEAN CORPUSCULAR HEMOGLOBIN [2]: 25.27 pg and 25.2 pg
MEAN CORPUSCULAR HEMOGLOBIN CONCENTRATION [2]: 38.7 G/DL and 39.53 G/DL
MEAN CORPUSCULAR VOLUME [2]: 65.23 fL and 63.73 fL
MONOCYTE [2]: 2.33% and 1%
NEUTROPHIL [2]: 10% and 5%
NUCLEATED RED BLOOD CELLS [2]: 0 /100WBC
PLATELET COUNT [2]: 1189.33 x10E3/uL and 1057.33 x10E3/uL
ALANINE AMINOTRANSFERASE [2]: 53.33 u/L and 54.33 u/L
ALBUMIN [2]: 3.97 G/DL and 4.07 G/DL
ALKALINE PHOSPHATASE [2]: 326 u/L and 308.67 u/L
ASPARTATE AMINOTRANSFERASE [2]: 59.67 u/L and 83.17 u/L
BLOOD UREA NITROGEN [2]: 15 mg/dL and 14 mg/dL
CARBON DIOXIDE [2]: 33.67 mmol/L and 34 mmol/L
CHLORIDE [2]: 105 MEQ/L and 98 MEQ/L
CHOLESTEROL [2]: 73 mg/dL and 71.33 mg/dL
CREATINE PHOSPHOKINASE [2]: 208.33 u/L and 266.5 u/L
CREATININE [2]: 0.1 mg/dL and 0.27 mg/dL
GLUCOSE [2]: 153.33 mg/dL and 133 mg/dL
LACTATE DEHYDROGENASE [2]: 62 u/L and 127 u/L
LIPASE [2]: 10.33 u/L and 11.67 u/L
PHOSPHORUS [2]: 10.93 mg/dL and 10.6 mg/dL
POTASSIUM [2]: 5.5 MEQ/L and 6.17 MEQ/L
SODIUM [2]: 147.27 MEQ/L and 142.68 MEQ/L
TOTAL BILIRUBIN [2]: 0.17 mg/dL and 0.15 mg/dL
TOTAL PROTEIN [2]: 5.87 G/DL and 6.03 G/DL
URIC ACID [2]: 0.4 mg/dL and 0.75 mg/dL
ABSOLUTE BASOPHIL [3]: 0 CELLS/uL
ABSOLUTE EOSINOPHIL [3]: 0 CELLS/uL
ABSOLUTE LYMPHOCYTE [3]: 7564.67 CELLS/uL
ABSOLUTE MONOCYTE [3]: 197.67 CELLS/uL
ABSOLUTE SEGMENTED NEUTROPHIL [3]: 937.67 CELLS/uL
BASOPHIL [3]: 0%
EOSINOPHIL [3]: 0%
ERYTHROCYTE COUNT [3]: 5.16 x10E6/uL
